# Test results as given in US20230241185A1, “COMPOSITION COMPRISING A DNA-DEGRADING ENZYME FOR USE IN A METHOD FOR THE TREATMENT OF IMMUNOSUPPRESSION AFTER ACUTE TISSUE INJURY” (Klinikum der Universität München, priority 2020, published 2023).
# Entries after “also recorded” stand apart in the source; their conditions may differ.
# What was measured:
# Type in all cases: in vivo, mice
# splenic CD3^+ T cells [1] = test: Splenic T cell counts by FACS after experimental stroke; settings: VX-765 100 mg kg^−1 i.p. 1 h prior to stroke vs vehicle; normalized to sham
# Text: Mice were anaesthetized with isoflurane delivered in a mixture of 30% O2 and 70% N2O. An incision was made between the ear and the eye in order to expose the temporal bone. Mice were placed in supine position, and a laser Doppler probe was affixed to the skull above the middle cerebral artery (MCA) territory. The common carotid artery and left external carotid artery were exposed via midline incision and further isolated and ligated. A 2-mm silicon-coated filament (Doccol) was inserted into the internal carotid artery, advanced gently to the MCA until resistance was felt, and occlusion was confirmed by a corresponding decrease in blood flow (i.e., a decrease in the laser Doppler flow signal by 80%. After 60 minutes of occlusion, the animals were re-anesthetized, and the filament was removed. After recovery, the mice were kept in their home cage with ad libitum access to water and food. Sham-operated mice received the same surgical procedure, but the filament was […] in lieu of being advanced to the MCA. Body temperature was maintained at 37° C. throughout surgery in all mice via feedback-controlled heating pad. The overall mortality rate of animals subjected to MCA occlusion was approximately 20%. All animals in the sham group survived the procedure. Exclusion criteria: 1. Insufficient MCA occlusion (a reduction in blood flow to […] of the baseline value). 2. Death during the surgery. 3. Lack of brain ischemia as quantified post-mortem by histological analysis.
# Anti-IL1β: Mice received two injections of antagonizing anti-IL-1β in sterile saline (clone: B122, InVivoMab, BioXcell, US), 1 hour prior to and 1 hour after surgery. Anti-IL-1β or the corresponding IgG control (Armenian hamster IgG, InVivoMab, BioXcell, US) was injected i.p. at a dose of 4 mg kg^−1 body weight in a final volume of 200 μl.
# Anti-FasL: Mice received two injections of antagonizing anti-FasL in sterile saline (clone: MFL3, InVivoMab, BioXcell, US), 1 hour prior to and 1 hour after surgery. […]
# CD45^+ splenocytes [2] = test: CD45+ splenocyte counts (spleen cellularity) by FACS after experimental stroke; settings: VX-765 100 mg kg^−1 i.p. 1 h prior to stroke vs vehicle; normalized to sham
# Text: (§1) Mice were anaesthetized with isoflurane delivered in a mixture of 30% O2 and 70% N2O. An incision was made between the ear and the eye in order to expose the temporal bone. Mice were placed in supine position, and a laser Doppler probe was affixed to the skull above the middle cerebral artery (MCA) territory. The common carotid artery and left external carotid artery were exposed via midline incision and further isolated and ligated. […] Lack of brain ischemia as quantified post-mortem by histological analysis. […]
# (§2) The anti-mouse antibodies listed below (see Table 1) were used for surface marker staining of CD45^+ leukocytes, CD45^+CD11b^+ monocytes (+FasL^+ expression), CD3^+ T cells, CD3^+CD4^+ Thelper cells, CD3^+CD8^+ Tcytotox cells and CD19^+ B cells (for representative gating strategy, see FIG. 10A). […] Flow cytometric data was acquired using a BD FACSverse flow cytometer (BD Biosciences) and analyzed using FlowJo software (Treestar).
# [3] = Infarct volumetry after stroke; settings: VX-765 vs control treatment; 18 h after stroke
# Text: as §1
# Mice were euthanized by overdose of ketamine-xylazine and perfused intracardially with normal saline. […] Infarct area of each section was assessed by ImageJ software (NIH). […] The total infarct volume was determined by integrating measured areas and distances between sections.
# splenic CD3^+ T cells [4] = test: Splenic T cell counts by FACS after burn injury; settings: VX-765 100 mg kg^−1 i.p. 1 h prior to burn injury vs vehicle; normalized to sham
# Procedure: (§3) Male C57Bl/6J mice (Charles River, Freiburg, Germany), aged 7-8 weeks, received a 35% total body surface area (TBSA) full thickness scald burn to the back through 10 seconds immersion in 98° C. water under deep anesthesia with 2% isoflurane and analgesia with 0.1 mg kg^−1 buprenorphine. Immediately after burn injury, the mice were resuscitated with 2 ml of lactated Ringer's solution (Baxter, Unterschleißheim, Germany) via i.p. injection as previously described (Hundeshagen et al., 2018; Bohannon et al., 2008; Toliver-Kinsky et al., 2005). Animals in the sham burn group were subjected to identical treatment except for water temperature during immersion being 36 C. Following burn injury or sham burn, mice were singly housed at room temperature (21° C.). […]
# as §2
# CD45^+ splenocytes [5] = test: CD45+ splenocyte counts by FACS after burn injury; settings: VX-765 100 mg kg^−1 i.p. 1 h prior to burn injury vs vehicle; normalized to sham
# Procedure: as §3, §2
# S. pneumoniae = test: Post-stroke intranasal bacterial infection, CFU burden in trachea; settings: VX765 vs control; 10^6 CFU S. pneumoniae intranasally 12 h after stroke; CFU 14 h later
# Text: as §1
# S. pneumoniae TIGR4, an encapsulated strain of serotype 4, was grown overnight on Columbia blood agar plates (37° C., 5% CO2), single colonies were cultured in Todd-Hewitt broth with 1% yeast extract to mid-logarithmic phase (OD600 nm: 0.35), washed, and diluted in sterile PBS to the desired concentration. […] Serial dilutions of lung and tracheal tissue homogenates were plated onto blood agar plates and CFU were determined after 16 h of incubation.
# K. pneumoniae = test: Post-stroke intranasal bacterial infection, CFU burden in lung; settings: VX765 vs control; 2×10^5 CFU K. pneumoniae intranasally 12 h after stroke; CFU 14 h later
smiles,measurement,setting,value
"CCO[C@@H]1OC(=O)C[C@@H]1NC(=O)[C@@H]1CCCN1C(=O)[C@@H](NC(=O)c1ccc(N)c(Cl)c1)C(C)(C)C [VX-765, Belnacasan]",splenic CD3+ T cell counts (survival),splenic CD3^+ T cells [1],improved T cell survival; also recorded: improved survival after VX-765 treatment compared to control
same,overall CD45+ splenocyte counts (spleen cellularity),CD45^+ splenocytes [2],improved T cell survival and spleen cellularity; also recorded: improved survival after VX-765 treatment compared to control
same,infarct volume (primary lesion size),[3],neither genetic nor pharmacological caspase-1 deficiency had a significant effect on the primary lesion size; also recorded: No significant difference in infarct volume between groups
same,splenic CD3+ T cell counts (survival),splenic CD3^+ T cells [4],improved T cell survival; also recorded: improved survival after VX-765 treatment compared to control
same,overall CD45+ splenocyte counts (spleen cellularity),CD45^+ splenocytes [5],improved T cell survival and spleen cellularity; also recorded: improved survival after VX-765 treatment compared to control
same,bacterial load (CFU) in trachea,S. pneumoniae,reduced post-injury bacterial load comparable to sham-operated group
same,bacterial load (CFU) in lung,K. pneumoniae,reduced post-injury bacterial load comparable to sham-operated group
